From ChEMBL document CHEMBL1201862, “PubChem BioAssay data set” (2004)
“And” between values parts separate entries of the source, which are not always exact repeats. Equal values may be shown once.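 Tested at 5 concentrations; 48 h exposure; 96-well plates; endpoints linearly interpolated, else capped at highest concentration. GI50: concentration for 50% inhibition of growth.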 The source made the active and inactive calls. Cut-off read from the data, not from the text of the source: active = GI50 up to about 1.1 µM and inactive = higher.

Assays:
Test in all cases: inhibition of tumour cell growth, NCI panel, 48 h
HCT-15 = system: HCT-15
HT-29 = system: HT-29
HOP-62 = system: HOP-62
COLO 205 = system: COLO 205
HCC 2998 = system: HCC 2998
SF-539 = system: SF-539
NCI-H23 = system: NCI-H23
K562 = system: K562
Hs-578T = system: Hs-578T
UO-31 = system: UO-31
A498 = system: A498
SK-MEL-5 = system: SK-MEL-5
NCI-H460 = system: NCI-H460
NCI-H226 = system: NCI-H226
SF-268 = system: SF-268
SW-620 = system: SW-620
OVCAR-8 = system: OVCAR-8
SK-MEL-28 = system: SK-MEL-28
SK-OV-3 = system: SK-OV-3
DU-145 = system: DU-145
MOLT-4 = system: MOLT-4
ACHN = system: ACHN
MDA-MB-231 = system: MDA-MB-231
OVCAR-3 = system: OVCAR-3
UACC-257 = system: UACC-257
MDA-MB-435 = system: MDA-MB-435
UACC-62 = system: UACC-62
U-251 = system: U-251
IGROV-1 = system: IGROV-1
SK-MEL-2 = system: SK-MEL-2
NCI/ADR-RES = system: NCI/ADR-RES
M14 = system: M14
SNB-19 = system: SNB-19
SNB-75 = system: SNB-75
HOP-92 = system: HOP-92
MCF7 = system: MCF7
Malme-3M = system: Malme-3M
SR = system: SR
TK-10 = system: TK-10
LOX IMVI = system: LOX IMVI
OVCAR-5 = system: OVCAR-5
RPMI-8226 = system: RPMI-8226
SN12C = system: SN12C
786-0 = system: 786-0
T47D = system: T47D
PC-3 = system: PC-3
HCT-116 = system: HCT-116
OVCAR-4 = system: OVCAR-4
RXF 393 = system: RXF 393
A549 = system: A549
BT-549 = system: BT-549
CCRF-CEM = system: CCRF-CEM
HL-60 = system: HL-60
CAKI-1 = system: CAKI-1
SF-295 = system: SF-295
NCI-H522 = system: NCI-H522
EKVX = system: EKVX

CC(SC(=S)N(C)C)C(=O)Nc1nnc(-c2ccc(Cl)cc2)o1 (configuration not stated)
GI50 (HCT-15): 17.7 µM | GI50 (HT-29): 24 µM (inactive) | GI50 (HOP-62): 51.2 µM (inactive) | GI50 (COLO 205): 33.3 µM (inactive) | GI50 (HCC 2998): > 100 µM (inactive) | GI50 (SF-539): 59.7 µM (inactive) | GI50 (NCI-H23): 54.2 µM (inactive) | GI50 (K562): 14.3 µM (inactive) | GI50 (Hs-578T): > 100 µM (inactive) | GI50 (UO-31): 20 µM (inactive) | GI50 (A498): 42.4 µM (inactive) | GI50 (SK-MEL-5): 31.6 µM (inactive) | GI50 (NCI-H460): 35.8 µM (inactive) | GI50 (NCI-H226): 40.6 µM (inactive) | GI50 (SF-268): 29 µM (inactive) | GI50 (SW-620): 34.7 µM (inactive) | GI50 (OVCAR-8): 49.7 µM (inactive) | GI50 (SK-MEL-28): 53 µM (inactive) | GI50 (SK-OV-3): > 100 µM (inactive) | GI50 (DU-145): 59.8 µM (inactive) | GI50 (MOLT-4): 3.24 µM (inactive) | GI50 (ACHN): 36 µM (inactive) | GI50 (MDA-MB-231): 44.6 µM (inactive) | GI50 (OVCAR-3): 19.6 µM (inactive) | GI50 (UACC-257): 65.9 µM (inactive) | GI50 (MDA-MB-435): 35.2 µM (inactive) | GI50 (UACC-62): 45.8 µM (inactive) | GI50 (U-251): 31 µM (inactive) | GI50 (IGROV-1): 30.2 µM (inactive) | GI50 (SK-MEL-2): 30.8 µM (inactive) | GI50 (NCI/ADR-RES): 14.6 µM (inactive) | GI50 (M14): 37.1 µM (inactive) | GI50 (SNB-19): 35.3 µM (inactive) | GI50 (SNB-75): 41.5 µM (inactive) | GI50 (HOP-92): > 100 µM (inactive) | GI50 (MCF7): 26.7 µM (inactive) | GI50 (Malme-3M): 90.2 µM (inactive) | GI50 (SR): 4.33 µM (inactive) | GI50 (TK-10): 80.2 µM (inactive) | GI50 (LOX IMVI): 16.9 µM (inactive) | GI50 (OVCAR-5): 56.4 µM (inactive) | GI50 (RPMI-8226): 22.6 µM (inactive) | GI50 (SN12C): 33.7 µM (inactive) | GI50 (786-0): 20.8 µM (inactive) | GI50 (T47D): 44.8 µM (inactive) | GI50 (PC-3): 35.9 µM (inactive) | GI50 (HCT-116): 28.8 µM (inactive) | GI50 (OVCAR-4): 44.7 µM (inactive) | GI50 (RXF 393): 80.7 µM (inactive) | GI50 (A549): 33.3 µM (inactive) | GI50 (BT-549): 89.1 µM (inactive)

CC(C)(C)C1CCC2c3c([nH]c4ccccc34)C3C(=O)N(c4ccc(Cl)cc4)C(=O)C3C2C1 (configuration not stated)
GI50 (A498): > 10 µM (inactive) | GI50 (SK-MEL-2): > 10 µM (inactive) | GI50 (MCF7): 31.3 µM (inactive) | GI50 (Malme-3M): > 10 µM (inactive) | GI50 (SR): > 10 µM (inactive) and 18 µM (inactive) | GI50 (LOX IMVI): 0.012 µM (active) | GI50 (OVCAR-5): 0.0209 µM (active) | GI50 (CCRF-CEM): > 10 µM (inactive) and 19.5 µM (inactive) | GI50 (BT-549): > 100 µM (inactive) | GI50 (HL-60): > 10 µM (inactive) and 17.7 µM (inactive)

Cc1c(-c2c(C)c3ccccc3n2S(=O)(=O)c2ccccc2)n(S(=O)(=O)c2ccccc2)c2ccccc12
GI50 (SF-539): 0.0371 µM (active) | GI50 (NCI-H23): > 72.8 µM (inactive) | GI50 (K562): > 100 µM (inactive) | GI50 (Hs-578T): > 100 µM (inactive) | GI50 (UO-31): > 100 µM (inactive) | GI50 (CAKI-1): 0.336 µM (active) | GI50 (A498): > 100 µM (inactive) | GI50 (NCI-H460): 0.0407 µM (active) | GI50 (NCI-H226): > 39.9 µM (inactive) | GI50 (SF-268): > 100 µM (inactive) | GI50 (SK-MEL-28): > 100 µM (inactive) | GI50 (SK-OV-3): > 82.6 µM (inactive) | GI50 (MOLT-4): > 100 µM (inactive) | GI50 (MDA-MB-231): > 56.4 µM (inactive) | GI50 (OVCAR-3): 5.62 µM (inactive) | GI50 (UACC-257): > 100 µM (inactive) | GI50 (MDA-MB-435): > 100 µM (inactive) | GI50 (UACC-62): > 29.1 µM (inactive) | GI50 (SF-295): > 100 µM (inactive) | GI50 (SK-MEL-2): > 37.5 µM (inactive) | GI50 (NCI/ADR-RES): > 80 µM (inactive) | GI50 (M14): > 22.2 µM (inactive) | GI50 (NCI-H522): > 100 µM (inactive) | GI50 (SNB-19): > 93.5 µM (inactive) | GI50 (SNB-75): > 31.6 µM (inactive) | GI50 (HOP-92): > 100 µM (inactive) | GI50 (Malme-3M): 0.0299 µM (active) | GI50 (TK-10): > 100 µM (inactive) | GI50 (OVCAR-5): > 51.6 µM (inactive) | GI50 (RPMI-8226): > 100 µM (inactive) | GI50 (786-0): 0.019 µM (active) | GI50 (PC-3): > 37.1 µM (inactive) | GI50 (CCRF-CEM): > 100 µM (inactive) | GI50 (BT-549): > 100 µM (inactive) | GI50 (EKVX): > 100 µM (inactive) | GI50 (HL-60): > 100 µM (inactive)
